Measurements published in patent US8217000B2, “Method for elevating prolactin in mammals” (Cara Therapeutics, Inc., priority 2006, dated 2012).
Structures can show the parent of a compound that is named as a salt. Non-standard residues stand in square brackets, D forms with d. Residues, ends and D or L forms follow the SMILES beside them. *: point of attachment. NH(4-picolyl) = c1cc(CN*)ccn1; dNle = CCCC[C@@H](N)C(=O)O

Assay: Plasma pharmacokinetics of CR665 after single IV infusion in human subjects
Conditions: for AUC(0-inf) / clearance / Cmax / MRT / Vd / half-life / Tmax / AUC(0-t): male, human, plasma, iv; for AUC(0-inf): AUC0-∞; for clearance: CL; for MRT: MRTint; for half-life: t1/2, males; for Tmax: median; for AUC(0-t): AUC0-t; for MRTint, geometric least squares mean: Parts A & B
Experimental: This clinical study was conducted as a double blind, placebo controlled, ascending single intravenous (IV) dose, sequential group study. This study was double blind and placebo controlled in order to avoid bias in the collection and evaluation of data during its conduct. […] In each group, subjects received CR665 or placebo. Doses were administered as a single constant rate IV infusion over 1 hour (part A) or 5 minutes (part B) on the morning of Day 1. Doses were administered in an escalating manner following satisfactory review of the safety data and pharmacokinetic data from the lower dose levels. There was a minimum of 6 days between dose escalations to allow sufficient time for an adequate safety review.
Plasma and urine samples for the analysis of CR665 and N oxide metabolite were prepared by solid phase extraction. The centrifuged eluates were quantified by liquid chromatography with tandem mass spectrometric detection (LC MS/MS). The lower limit of quantification was 1 ng/mL.
For pharmacokinetic assessments, blood samples (1×3 mL) were taken from the contralateral forearm vein(s) at the following times: Pre-dose, 15 minutes, 30 minutes, 45 minutes, 1 hour (immediately prior to the end of infusion), 1 hour 5 minutes, 1 hour 10 minutes, 1 hour 15 minutes, 1.5, 2, 2.5, 3, 4, 6, 8, 12, 16, 24, 36 and 48 hours after the start of the infusion). An indwelling cannula (Venflon®; BOC Ohmeda AB, Sweden) was used for all blood collection pre-dose and up to at least 12 hours after the start of the infusion. Otherwise, samples were collected using venipuncture. Blood samples were collected into pre-chilled 3 mL K3EDTA Vacutainer™ tubes (Becton Dickinson UK, Ltd., Oxford) and, after mixing, were placed in a cool box containing crushed ice/water. The samples were centrifuged, within 30 minutes of collection, at 1500 g for 10 minutes at approximately 4° C. For each sample, the separated plasma was transferred into two 5 mL suitably labeled polypropylene tubes, and stored immediately at approximately −20° C. Plasma samples were analyzed for CR665 using liquid chromatography with tandem mass spectrometric detection.
The pharmacokinetic analysis was conducted using WinNonlin Enterprise Version 4.0.1.
Pharmacokinetic parameters were determined from the plasma and urine, concentrations of CR665 and the N-oxide metabolite using non compartmental procedures.
Dose and body weight normalized values (norm) were determined for AUC0-t, AUC0-∞, Cinf and Cmax. Body weight normalized values [norm] were determined for Vz, Vss, CL and CLR.
The pharmacokinetic analysis was conducted using model independent methods as implemented in WinNonlin software, based on plasma concentrations of CR665 from those subjects who have received CR665 and have evaluable plasma concentration-time profiles.
The following plasma pharmacokinetic parameters were determined for CR665: • Cmax Maximum plasma concentration • tmax Time of maximum plasma concentration • t1/2z Terminal half-life=ln(2)/λz • AUC0-1 Area under the plasma concentration-time curve from time zero to time t (time of last quantifiable plasma concentration) • AUCinf Area under the plasma concentration-time curve from time zero to infinity calculated as [AUC0-t+(Clast/λz)] where Clast is the estimated concentration at the last quantifiable concentration curve. • λz Terminal-phase rate constant, also known as Kel • CL Total body clearance=Dose/AUCinf • Vz Volume of distribution based on terminal phase calculated as Vz/F=Dose/λz*AUCinf
Individual elapsed sampling times were used in the pharmacokinetic analysis. Cmax and tmax were obtained directly from the experimental observations. For the purpose of calculating AUC0-t, when two consecutive plasma concentrations below the lower limit of quantification (LLOQ) were encountered after tmax, all subsequent values were excluded from the analysis.

[1] = 0.06 mg/kg, males, 5-minute IV infusion, geometric mean
[2] = 0.06 mg/kg, males, 1 hour IV infusion, geometric mean
[3] = 0.09 mg/kg, males, 5-minute IV infusion, geometric mean
[4] = 0.12 mg/kg, males, 1 hour IV infusion, geometric mean
[5] = 0.24 mg/kg, males, 1 hour IV infusion, geometric mean
[6] = 0.36 mg/kg, males, 1 hour IV infusion, geometric mean
[7] = 0.42 mg/kg, males, 1 hour IV infusion, geometric mean
[8] = 0.48 mg/kg, males, 1 hour IV infusion, geometric mean
[9] = males, all doses, 5-minute infusion

`CCCC[C@@H](NC(=O)[C@@H](Cc1ccccc1)NC(=O)[C@H](N)Cc1ccccc1)C(=O)N[C@H](CCCNC(=N)N)C(=O)NCc1ccncc1` [CR665, D-phenylalanyl-D-phenylalanyl-D-norleucyl-N-(4-pyridinylmethyl)-D-argininamide, acetate salt] (H-[dF][dF][dNle][dR]-{NH(4-picolyl)}) gave an AUC(0-inf) [1] of 142 ng·h/mL, an AUC(0-inf) [2] of 132 ng·h/mL and a clearance [1] of 553 mL/min. For the same molecule, the clearance [2] was 564 mL/min, the Cmax [1] was 624 ng/mL and the Cmax [2] was 119 ng/mL. It also gave an MRT [1] of 30.1 min, an MRT [2] of 33.8 min and a Vd (0.06 mg/kg, Vss, males, 0.06 mg/kg, 5-minute IV infusion, geometric mean) of 16.6 L. It also gave a Vd (0.06 mg/kg, Vss, males, 0.06 mg/kg, 1 hour IV infusion, geometric mean) of 19 L, a Vd (0.06 mg/kg, Vz, males, 5-minute IV infusion, geometric mean) of 48 L and a Vd (0.06 mg/kg, Vz, males, 1 hour IV infusion, geometric mean) of 35.5 L. For the same molecule, the half-life (0.06 mg/kg, 5-minute IV infusion, geometric mean) was 60 min, the half-life (0.06 mg/kg, 1 hour IV infusion, geometric mean) was 43.7 min and the Tmax (0.06 mg/kg, males, 5-minute IV infusion) was 5 min. It also gave a Tmax (0.06 mg/kg, males, 1 hour IV infusion) of 52.5 min, an AUC(0-t) [3] of 209 ng·h/mL and an AUC(0-inf) [3] of 213 ng·h/mL. For the same molecule, the clearance [3] was 575 mL/min, the Cmax [3] was 783 ng/mL and the MRT [3] was 32.2 min. For the same molecule, the Vd (0.09 mg/kg, Vss, males, 0.09 mg/kg, 5-minute IV infusion, geometric mean) was 18.5 L, the Vd (0.09 mg/kg, Vz, males, 5-minute IV infusion, geometric mean) was 56.7 L and the half-life (0.09 mg/kg, 5-minute IV infusion, geometric mean) was 68.4 min. For the same molecule, the Tmax (0.09 mg/kg, males, 5-minute IV infusion) was 5 min, the AUC(0-t) [4] was 267 ng·h/mL and the AUC(0-inf) [4] was 270 ng·h/mL. For the same molecule, the clearance [4] was 533 mL/min, the Cmax [4] was 231 ng/mL and the MRT [4] was 43.4 min. It also gave a Vd (0.12 mg/kg, Vss, males, 0.12 mg/kg, 1 hour IV infusion, geometric mean) of 23.1 L, a Vd (0.12 mg/kg, Vz, males, 1 hour IV infusion, geometric mean) of 75.9 L and a half-life (0.12 mg/kg, 1 hour IV infusion, geometric mean) of 99 min. For the same molecule, the Tmax (0.12 mg/kg, males, 1 hour IV infusion) was 45 min, the AUC(0-t) [5] was 474 ng·h/mL and the AUC(0-inf) [5] was 478 ng·h/mL. For the same molecule, the clearance [5] was 629 mL/min, the Cmax [5] was 431 ng/mL and the MRT [5] was 36.8 min. For the same molecule, the Vd (0.24 mg/kg, Vss, males, 0.24 mg/kg, 1 hour IV infusion, geometric mean) was 23.2 L, the Vd (0.24 mg/kg, Vz, males, 1 hour IV infusion, geometric mean) was 74.6 L and the half-life (0.24 mg/kg, 1 hour IV infusion, geometric mean) was 82.2 min. The Tmax (0.24 mg/kg, males, 1 hour IV infusion) was 60 min, the AUC(0-t) [6] was 808 ng·h/mL and the AUC(0-inf) [6] was 812 ng·h/mL. It also gave a clearance [6] of 569 mL/min, a Cmax [6] of 779 ng/mL and an MRT [6] of 37.4 min. The Vd (0.36 mg/kg, Vss, males, 0.36 mg/kg, 1 hour IV infusion, geometric mean) was 21.2 L, the Vd (0.36 mg/kg, Vz, males, 1 hour IV infusion, geometric mean) was 80.6 L and the half-life (0.36 mg/kg, 1 hour IV infusion, geometric mean) was 98.4 min. It also gave a Tmax (0.36 mg/kg, males, 1 hour IV infusion) of 60 min, an AUC(0-t) [7] of 1080 ng·h/mL and an AUC(0-inf) [7] of 1080 ng·h/mL. The clearance [7] was 504 mL/min, the Cmax [7] was 943 ng/mL and the MRT [7] was 37.1 min. The Vd (0.42 mg/kg, Vss, males, 0.42 mg/kg, 1 hour IV infusion, geometric mean) was 18.7 L, the Vd (0.42 mg/kg, Vz, males, 1 hour IV infusion, geometric mean) was 77.9 L and the half-life (0.42 mg/kg, 1 hour IV infusion, geometric mean) was 107 min. The Tmax (0.42 mg/kg, males, 1 hour IV infusion) was 60 min, the AUC(0-t) [8] was 1120 ng·h/mL and the AUC(0-inf) [8] was 1120 ng·h/mL. The clearance [8] was 576 mL/min, the Cmax [8] was 982 ng/mL and the MRT [8] was 38.9 min. It also gave a Vd (0.48 mg/kg, Vss, males, 0.48 mg/kg, 1 hour IV infusion, geometric mean) of 22.4 L, a Vd (0.48 mg/kg, Vz, males, 1 hour IV infusion, geometric mean) of 93.3 L and a half-life (0.48 mg/kg, 1 hour IV infusion, geometric mean) of 112 min. For the same molecule, the Tmax (0.48 mg/kg, males, 1 hour IV infusion) was 52.5 min, the “AUC0-t (norm), ratio of geometric least squares means 5-minute:1-hour” value (males) was 1.02 and the “AUC0-∞ (norm), ratio of geometric least squares means 5-minute:1-hour” value (males) was 1.04. The “CL, ratio of geometric least squares means 5-minute:1-hour” value (males) was 0.964, the “Cmax (norm), ratio of geometric least squares means 5-minute:1-hour” value (males) was 4.49 and the “Cmax, fold higher for the 5-minute compared to the 1-hour infusion” value (males) was “approximately 4.5 fold”. The “MRTint, ratio of geometric least squares means 5-minute:1-hour” value (males) was 0.923, the “Vss, ratio of geometric least squares means 5-minute:1-hour” value (males) was 0.900 and the “Vz, ratio of geometric least squares means 5-minute:1-hour” value (males) was 1.03. For the same molecule, the “t1/2, ratio of geometric least squares means 5-minute:1-hour” value (males) was 1.02, the MRTint (males, 0.24 mg/kg, 1 hour IV infusion, geometric mean) was 36.8 min and the “MRTint, geometric least squares mean” value (males, 1-hour infusion) was 36.3 min. For the same molecule, the “MRTint, geometric least squares mean” value (males, 5-minute infusion) was 33.5 min, the “Pooled between-subject variability for AUC0-∞” value [9] was 15.3% and the “Pooled between-subject variability for Cmax” value [9] was 24.1%.
